Columns and labels:
[1] = system: Trichophyton rubrum; experiment: Antimicrobial spectrum, MIC, potato agar; format: cell-based; settings: 96 h, potato agar (pH 6.4, 4 days, 27° C.)
[2] = system: Trichophyton verrucosum; experiment: Treatment of dermatomycosis of cattle caused by mass infection; format: in vivo; design: key: +++: complete removal of scales and recovered; ++: a little scales remained; +: removal of a part of scales; -: no removal of scale and no recovery
Description: When dermatomycosis of cattle caused by mass infection of Trichophyton verrucosum is treated with nanaomycin B, nanaomycin B is dissolved or suspended in a suitable carrier, for example, olive oil, and is coated on the affected part directly with or without removal of the scales. […] The results obtained by coating nanaomycin B once and by twice coatings (the second coating is carried out a week after the first coating) are shown in tables 2 and 3, respectively.

[3] = system: Trichophyton schoenleini; experiment: Antifungal activity, agar dilution method; format: cell-based; settings: Trichophyton, 96 h, potato agar, pH 6.4, 27° C., 4 days, read-out: Minimal Inhibitory Con.
Description: (§1) Minimal inhibitory concentration is assayed by agar dilution method
(§2) (potato agar, pH 6.4, 27° C., 4 days)

[4] = system: Trichophyton asteroides; experiment: Antifungal activity, agar dilution method; format: cell-based; settings: Trichophyton, 96 h, potato agar, pH 6.4, 27° C., 4 days, read-out: Minimal Inhibitory Con.
Description: as §1, §2

[5] = system: Aspergillus fumigatus; experiment: Antifungal activity, agar dilution method; format: cell-based; settings: Aspergillus fumigatus, 96 h, potato agar, pH 6.4, 27° C., 4 days, read-out: Minimal Inhibitory Con.
Description: as §1, §2

[6] = system: Trichophyton violaceum; experiment: Antifungal activity, agar dilution method; format: cell-based; settings: Trichophyton violaceum, 96 h, potato agar, pH 6.4, 27° C., 4 days, read-out: Minimal Inhibitory Con.
Description: as §1, §2

[7] = system: Trichophyton ferrugineum; experiment: Antifungal activity, agar dilution method; format: cell-based; settings: Microsporum ferrugineum, 96 h, potato agar, pH 6.4, 27° C., 4 days, read-out: Minimal Inhibitory Con.
Description: as §1, §2

[8] = system: Trichophyton interdigitale; experiment: Antifungal activity, agar dilution method; format: cell-based; settings: Trichophyton interdigitale, 96 h, potato agar, pH 6.4, 27° C., 4 days, read-out: Minimal Inhibitory Con.
Description: as §1, §2

[9] = system: Aspergillus niger; experiment: Antifungal activity, agar dilution method; format: cell-based; settings: Aspergillus niger, 96 h, potato agar, pH 6.4, 27° C., 4 days, read-out: Minimal Inhibitory Con.
Description: as §1, §2

[10] = system: Saccharomyces sake; experiment: Antifungal activity, agar dilution method; format: cell-based; settings: Saccharomyces, 96 h, potato agar, pH 6.4, 27° C., 4 days, read-out: Minimal Inhibitory Con.
Description: as §1, §2

[11] = system: Microsporum gypseum; experiment: Antifungal activity, agar dilution method; format: cell-based; settings: Nannizzia gypsea, 96 h, potato agar, pH 6.4, 27° C., 4 days, read-out: Minimal Inhibitory Con.
Description: as §1, §2

[12] = system: Trichophyton rubrum; experiment: Antifungal activity, agar dilution method; format: cell-based; settings: Trichophyton rubrum, 96 h, potato agar, pH 6.4, 27° C., 4 days, read-out: Minimal Inhibitory Con.
Description: as §1, §2

[13] = system: Candida albicans; experiment: Antifungal activity, agar dilution method; format: cell-based; settings: Candida albicans, 96 h, potato agar, pH 6.4, 27° C., 4 days, read-out: Minimal Inhibitory Con.
Description: as §1, §2

[14] = system: Candida albicans; experiment: Antimicrobial spectrum, MIC, potato agar; format: cell-based; settings: 96 h, potato agar (pH 6.4, 4 days, 27° C.)
[15] = system: Trichophyton asteroides; experiment: Antimicrobial spectrum, MIC, potato agar; format: cell-based; settings: 96 h, potato agar (pH 6.4, 4 days, 27° C.)
[16] = system: fungi (Test Organisms of Table 4); experiment: Antifungal activity, comparison in words (Table 4); format: cell-based
[17] = Conversion of nanaomycin B into nanaomycin A in culture medium or living bodies
[18] = system: Trichophyton mentagrophytes; experiment: Antimicrobial spectrum, MIC, potato agar; format: cell-based; settings: 96 h, potato agar (pH 6.4, 4 days, 27° C.)
[19] = system: Aspergillus fumigatus IAM 2612; experiment: Antimicrobial spectrum, MIC, potato agar; format: cell-based; settings: IAM2612, 96 h, potato agar (pH 6.4, 4 days, 27° C.)
[20] = system: Trichophyton ferrugineum; experiment: Antimicrobial spectrum, MIC, potato agar; format: cell-based; settings: Microsporum ferrugineum, 96 h; potato agar (pH 6.4, 4 days, 27° C.)
[21] = system: Trichophyton schoenleini; experiment: Antimicrobial spectrum, MIC, potato agar; format: cell-based; settings: 96 h, potato agar (pH 6.4, 4 days, 27° C.)
[22] = Solubility; format: physicochemical
[23] = system: Trichophyton roseum; experiment: Antimicrobial spectrum, MIC, potato agar; format: cell-based; settings: 96 h, potato agar (pH 6.4, 4 days, 27° C.)
[24] = system: Bacillus subtillis PCI 219; experiment: Antimicrobial spectrum, MIC, nutrient agar; format: cell-based; settings: PCI219, 48 h, nutrient agar (pH 7.0, 2 days, 37° C.)
[25] = Activity of nanaomycin B itself; settings: in words
[26] = system: Trichophyton violaceum; experiment: Antimicrobial spectrum, MIC, potato agar; format: cell-based; settings: 96 h, potato agar (pH 6.4, 4 days, 27° C.)
[27] = coating once, I direct coating on affected part, 0.1 mg/ml
[28] = coating once, I direct coating on affected part, 1 mg/ml
[29] = coating once, I direct coating on affected part, 10 mg/ml
[30] = coating once, II coating after removing the scales, 0.1 mg/ml
[31] = coating once, II coating after removing the scales, 1 mg/ml
[32] = coating once, II coating after removing the scales, 10 mg/ml
[33] = twice coatings (second a week after the first), I direct coating on affected part, 0.1 mg/ml
[34] = twice coatings (second a week after the first), I direct coating on affected part, 1 mg/ml
[35] = twice coatings (second a week after the first), I direct coating on affected part, 10 mg/ml
[36] = twice coatings (second a week after the first), II coating after removing the scales, 0.1 mg/ml
[37] = twice coatings (second a week after the first), II coating after removing the scales, 1 mg/ml
[38] = twice coatings (second a week after the first), II coating after removing the scales, 10 mg/ml

CC1OC(CC(=O)O)CC2C(=O)c3cccc(O)c3C(=O)C12O (stereo not shown) [Nanaomycin B]
3.1 µg/mL: MIC [1] | MIC [21] | MIC [26]
stronger antifungal activity: antifungal activity when the pH of the medium is higher than 6.4 ([16]; pH of medium higher than 6.4)
6.3 µg/mL: MIC [6] | MIC [7] | MIC [12]
no or little activity: activity of nanaomycin B itself [25]
31.2 µg/mL: MIC [14]
superior: antifungal activity compared with ethylkalafunginate (ethylkalamycinate) [16]
0.4 µg/mL: MIC [3]
Insoluble: Solubility in n-hexane, petroleum ether and water [22]
+++: Result after 3 weeks [2, 27] | Result after 4 weeks [2, 27] | Result after 1 week [2, 28] | Result after 2 weeks [2, 28] | Result after 3 weeks [2, 28] | Result after 4 weeks [2, 28] | Result after 1 week [2, 29] | Result after 2 weeks [2, 29] | Result after 3 weeks [2, 29] | Result after 4 weeks [2, 29] | Result after 1 week [2, 30] | Result after 2 weeks [2, 30] | Result after 3 weeks [2, 30] | Result after 4 weeks [2, 30] | Result after 1 week [2, 31] | Result after 2 weeks [2, 31] | Result after 3 weeks [2, 31] | Result after 4 weeks [2, 31] | Result after 1 week [2, 32] | Result after 2 weeks [2, 32] | Result after 3 weeks [2, 32] | Result after 4 weeks [2, 32] | Result after 2 weeks [2, 33] | Result after 3 weeks [2, 33] | Result after 4 weeks [2, 33] | Result after 3 weeks [2, 34] | Result after 4 weeks [2, 34] | Result after 1 week [2, 35] | Result after 2 weeks [2, 35] | Result after 3 weeks [2, 35] | Result after 4 weeks [2, 35] | Result after 1 week [2, 36] | Result after 2 weeks [2, 36] | Result after 3 weeks [2, 36] | Result after 4 weeks [2, 36] | Result after 1 week [2, 37] | Result after 2 weeks [2, 37] | Result after 3 weeks [2, 37] | Result after 4 weeks [2, 37] | Result after 1 week [2, 38] | Result after 2 weeks [2, 38] | Result after 3 weeks [2, 38] | Result after 4 weeks [2, 38]
25 µg/mL: MIC [18]
7.8 µg/mL: MIC [24]
50 µg/mL: MIC [5]
converted into nanaomycin A: conversion into nanaomycin A in a culture medium or in living bodies [17]
> 100 µg/mL: MIC [9] | MIC [10] | MIC [13] | MIC [19]
12.5 µg/mL: MIC [4] | MIC [8] | MIC [11] | MIC [15] | MIC [20] | MIC [23]
++: Result after 1 week [2, 27] | Result after 2 weeks [2, 27] | Result after 1 week [2, 33] | Result after 1 week [2, 34] | Result after 2 weeks [2, 34]
slightly inferior: antifungal activity compared with deoxyfrenolicin [16]
Easily soluble: Solubility in methanol, ethanol, ethylacetate, chloroform, acetone and ether [22]

Source: patent US4308210A, “Nanaomycin B and therapeutic compositions containing same” (The Kitasato Institute, priority 1976, dated 1981)
